Common to all, as to experiment: isothermal titration calorimetry
Common to all, as to assay type: binding
What all share (settings): read-out: Ka (M^-1) (converted)
(Isothermal titration calorimetry measures the heat released or taken up as one component is titrated into another.)

The target in experiment [1] is T1, eArgRS (E. coli arginyl-tRNA synthetase, ArgRS) (Escherichia coli, UniProt P11875).
T1 construct: gene argS; full length, 577 residues; pET-28a-SUMO in E. coli BL21(DE3), N-terminal His-SUMO tag cleaved by Ulp1; mutants made in pET22b/ArgRS
T1 sequence (P11875 1-577): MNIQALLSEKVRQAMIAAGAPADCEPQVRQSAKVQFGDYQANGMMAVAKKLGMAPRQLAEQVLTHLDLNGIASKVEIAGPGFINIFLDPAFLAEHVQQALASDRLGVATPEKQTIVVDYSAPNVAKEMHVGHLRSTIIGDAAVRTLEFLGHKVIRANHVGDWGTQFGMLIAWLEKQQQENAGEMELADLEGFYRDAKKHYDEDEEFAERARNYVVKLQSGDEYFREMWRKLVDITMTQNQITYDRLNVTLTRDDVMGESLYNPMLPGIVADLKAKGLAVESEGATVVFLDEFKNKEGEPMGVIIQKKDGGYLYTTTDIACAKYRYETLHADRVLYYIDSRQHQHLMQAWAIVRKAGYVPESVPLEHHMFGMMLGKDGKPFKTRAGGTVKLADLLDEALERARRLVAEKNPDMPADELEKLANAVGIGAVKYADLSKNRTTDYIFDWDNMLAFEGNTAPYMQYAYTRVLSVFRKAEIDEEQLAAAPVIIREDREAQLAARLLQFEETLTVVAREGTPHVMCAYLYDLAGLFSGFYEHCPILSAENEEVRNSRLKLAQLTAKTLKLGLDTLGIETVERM
The source says: (§1) isothermal titration calorimetry on eArgRS (E. coli arginyl-tRNA synthetase, ArgRS)

The target of experiment [2] is T2, eArgRS (E. coli arginyl-tRNA synthetase, ArgRS) (Escherichia coli, UniProt P11875, Y313A).
T2 construct: gene argS; full length, 577 residues; pET-28a-SUMO in E. coli BL21(DE3), N-terminal His-SUMO tag cleaved by Ulp1; mutants made in pET22b/ArgRS
T2 sequence (P11875 1-577 Y313A): T1 sequence (P11875 1-577) with Y313A
From the text: as §1

Experiment [3] addresses T3, eArgRS (E. coli arginyl-tRNA synthetase, ArgRS) (Escherichia coli, UniProt P11875, R324A).
T3 construct: gene argS; full length, 577 residues; pET-28a-SUMO in E. coli BL21(DE3), N-terminal His-SUMO tag cleaved by Ulp1; mutants made in pET22b/ArgRS
T3 sequence (P11875 1-577 R324A): T1 sequence (P11875 1-577) with R324A
From the text: as §1

Structures are written as SMILES. Residue numbers refer to the chain shown, from its start.

For `N=C(N)NCCC[C@H](N)C(=O)O` [L-arginine], the values for the Kd in experiment [1], in experiment [2] and in experiment [3] were 46.5 µM, 80.6 µM and 191 µM, respectively.

The values above are taken from paper PMC3956977, “Crystal structure of E. coli arginyl-tRNA synthetase and ligand binding studies revealed key residues in arginine recognition” (Protein & Cell, 2014).
